# Source: ChEMBL document CHEMBL1201862, “PubChem BioAssay data set” (2004)
# Active and inactive are the calls of the source.
# Legend:
# [1] = molecular target: T1, Eukaryotic translation initiation factor 2-alpha kinase 3 (Homo sapiens, UniProt Q9NZJ5); assay: Dose response cell-based high-throughput screening assay to measure PERK inhibition. [Related pubchem assays: 1416 ]; type: functional
# [2] = molecular target: T1, Eukaryotic translation initiation factor 2-alpha kinase 3; assay: Counterscreen assay for PERK inhibitors: Dose response cell-based high throughput screening assay to measure inhibition of PERK at 6 hours. [Related pubchem assays: 1522, 1416 ]; type: functional
# [3] = molecular target: T2, Aspartyl aminopeptidase (Plasmodium falciparum 3D7, UniProt Q8I2J3)
# T2 sequence (Q8I2J3 whole entry): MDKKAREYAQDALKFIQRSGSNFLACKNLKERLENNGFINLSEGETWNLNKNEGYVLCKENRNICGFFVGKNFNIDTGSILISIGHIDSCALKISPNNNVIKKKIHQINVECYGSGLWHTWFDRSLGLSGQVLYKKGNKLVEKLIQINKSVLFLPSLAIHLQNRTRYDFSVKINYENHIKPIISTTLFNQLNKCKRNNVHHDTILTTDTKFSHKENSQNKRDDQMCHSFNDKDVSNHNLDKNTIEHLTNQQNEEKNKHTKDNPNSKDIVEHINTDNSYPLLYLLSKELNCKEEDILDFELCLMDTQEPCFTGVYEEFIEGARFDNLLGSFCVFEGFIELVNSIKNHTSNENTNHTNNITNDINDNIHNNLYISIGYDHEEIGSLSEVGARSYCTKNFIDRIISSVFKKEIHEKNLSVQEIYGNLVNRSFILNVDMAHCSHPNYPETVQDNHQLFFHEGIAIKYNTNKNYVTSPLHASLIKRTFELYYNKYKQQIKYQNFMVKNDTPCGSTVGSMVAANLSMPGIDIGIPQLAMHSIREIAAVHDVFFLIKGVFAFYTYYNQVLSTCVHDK
# [4] = molecular target: Procathepsin L (Homo sapiens, UniProt P07711)
# [5] = molecular target: Large T antigen (Simian virus 40, UniProt P03070); type: functional, Betapolyomavirus macacae;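 note: Confirmatory-stage PubChem screen for compounds that inhibit SV40 T antigen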
# [6] = molecular target: RNA-editing ligase 1, mitochondrial (Trypanosoma brucei brucei, UniProt P86926); assay: inhibition of trypanosome RNA editing ligase – biochemical, fluorescence, Trypanosoma brucei, dose response (AID 1117295); type: functional
# [7] = molecular target: Lysosomal acid glucosylceramidase (Homo sapiens, UniProt P04062); assay: Dose response cell-based high throughput screening assay to identify enhancers of beta-glucosidase activity. [Related pubchem assays: 784 ]; type: functional
# [8] = molecular target: Bcl-2-like protein 10 (Homo sapiens, UniProt Q9HD36); assay: Bcl-B/TR3 peptide binding disruption – biochemical, fluorescence polarization, FITC-TR3 peptide, selectivity assay for Bfl-1 inhibitor project, primary screen (AID 748);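 note: fluorescence polarization from a fluorescein-labelled TR3 peptide binding purified Bcl-B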
# [9] = molecular target: T3, Estrogen receptor beta (Homo sapiens, UniProt Q92731);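 note: recombinant ER-beta bound to coactivator SRC1 peptide in presence of estradiol agonist; inhibitors block coactivator peptide binding and lower the FRET signal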
# [10] = molecular target: T3, Estrogen receptor beta; assay: blockers of SRC-3 recruitment to ERβ – biochemical, ELISA, streptavidin-HRP readout, orthogonal assay, confirmation (AID 1060)
# [11] = tested on: Vibrio harveyi; assay: Quorum Sensing, LuxS, LuxPQ Measured in Microorganism System Using Plate Reader - 2035-01_Inhibitor_DoseNoFile_DryPowder_Activity. [Related pubchem assays (depositor defined):AID2106]; type: functional, organism-based
# [12] = tested on: Vibrio harveyi; assay: LuxS/LuxPQ-dependent luminescence inhibition, V. harveyi – dry powder, set 2, dose response (AID 493072); type: functional, organism-based
# [13] = molecular target: Protein Rev (Human immunodeficiency virus type 1 group M subtype B (isolate WMJ22)(HIV-1), UniProt P05866); assay: inhibitors of Rev protein–RRE RNA complex – biochemical, protein-RNA interaction, dose response (AID 842); parameters: species or system Human immunodeficiency virus 1
# [14] = Counterscreen for IDE inhibitors: Luminescence-based cell-based high throughput dose response assay to identify compounds that are cytotoxic to HEK cells. [Related pubchem assays: 434962 (Primary screen (IDE inhibitors in singlicate)), 449730 (Counterscreen (Cytotoxicity in triplicate)), 435028 (Confirmation (IDE inhibitors in triplicate)) …; type: functional; settings: HEK293
# [15] = molecular target: T4, Insulin-degrading enzyme (Homo sapiens, UniProt P14735); assay: Dose Response: Fluorescence polarization-based cell-based high throughput dose response assay for inhibitors of insulin-degrading enzyme (IDE). [Related pubchem assays: 434962 (Primary screen (IDE inhibitors in singlicate)), 449730 (Counterscreen (Cytotoxicity in triplicate)), 435028 (Confirmation (IDE inhibitors in triplicate)), 434984 (Summary …; type: functional
# T4 sequence (P14735 whole entry): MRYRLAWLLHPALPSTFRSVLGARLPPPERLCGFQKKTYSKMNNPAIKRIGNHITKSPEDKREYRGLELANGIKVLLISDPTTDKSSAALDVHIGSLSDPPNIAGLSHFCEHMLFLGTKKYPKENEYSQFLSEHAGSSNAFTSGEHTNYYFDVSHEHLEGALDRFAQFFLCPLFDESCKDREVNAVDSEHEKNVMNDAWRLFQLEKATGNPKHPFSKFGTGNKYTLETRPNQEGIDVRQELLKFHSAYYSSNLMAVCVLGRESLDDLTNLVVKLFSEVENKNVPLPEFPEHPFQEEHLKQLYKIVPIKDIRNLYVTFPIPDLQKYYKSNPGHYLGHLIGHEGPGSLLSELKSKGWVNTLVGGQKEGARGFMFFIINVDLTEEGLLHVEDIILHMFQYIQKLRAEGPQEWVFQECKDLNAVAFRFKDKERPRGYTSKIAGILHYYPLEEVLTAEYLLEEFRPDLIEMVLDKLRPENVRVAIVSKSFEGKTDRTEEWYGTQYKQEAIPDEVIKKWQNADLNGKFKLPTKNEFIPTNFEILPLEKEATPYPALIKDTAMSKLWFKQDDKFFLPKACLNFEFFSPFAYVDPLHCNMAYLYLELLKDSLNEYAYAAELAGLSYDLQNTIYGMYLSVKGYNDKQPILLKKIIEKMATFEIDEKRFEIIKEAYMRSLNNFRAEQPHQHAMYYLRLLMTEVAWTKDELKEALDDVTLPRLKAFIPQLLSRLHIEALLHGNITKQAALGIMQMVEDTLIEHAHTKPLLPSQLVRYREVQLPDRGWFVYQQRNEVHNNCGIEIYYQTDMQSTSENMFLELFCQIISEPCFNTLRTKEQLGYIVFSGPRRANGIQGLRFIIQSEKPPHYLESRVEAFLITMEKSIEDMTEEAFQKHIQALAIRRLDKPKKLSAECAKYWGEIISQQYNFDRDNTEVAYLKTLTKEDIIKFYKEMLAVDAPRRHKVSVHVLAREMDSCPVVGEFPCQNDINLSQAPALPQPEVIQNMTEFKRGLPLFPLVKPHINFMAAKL
# [16] = molecular target: T5, Sentrin-specific protease 1 (Homo sapiens, UniProt Q9P0U3); assay: SENP1 catalytic domain blockers, concentration series – biochemical, kinetic FRET, dose response (AID 651697); type: functional; settings: read-out: IC50_Mean
# T5 sequence (Q9P0U3 whole entry): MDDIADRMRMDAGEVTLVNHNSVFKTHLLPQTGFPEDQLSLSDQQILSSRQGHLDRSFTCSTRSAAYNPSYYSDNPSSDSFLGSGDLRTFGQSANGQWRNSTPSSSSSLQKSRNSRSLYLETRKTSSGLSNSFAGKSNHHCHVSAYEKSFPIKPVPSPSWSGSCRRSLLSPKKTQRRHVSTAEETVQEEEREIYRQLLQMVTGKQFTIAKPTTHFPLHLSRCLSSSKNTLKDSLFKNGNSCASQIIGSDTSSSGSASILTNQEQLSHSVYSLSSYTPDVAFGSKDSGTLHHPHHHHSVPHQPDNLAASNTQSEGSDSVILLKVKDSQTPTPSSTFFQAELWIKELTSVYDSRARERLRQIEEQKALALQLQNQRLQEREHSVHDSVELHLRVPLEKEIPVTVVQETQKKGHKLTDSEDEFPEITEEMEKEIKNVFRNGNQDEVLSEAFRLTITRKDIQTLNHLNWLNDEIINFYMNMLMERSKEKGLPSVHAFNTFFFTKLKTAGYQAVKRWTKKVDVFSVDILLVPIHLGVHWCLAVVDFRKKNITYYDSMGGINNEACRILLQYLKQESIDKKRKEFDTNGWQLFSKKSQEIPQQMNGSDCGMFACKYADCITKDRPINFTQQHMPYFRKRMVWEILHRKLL
# [17] = molecular target: T5, Sentrin-specific protease 1; assay: Dose response confirmation of small molecule inhibitors of the catalytic domain of the SUMO protease, SENP1 in a FRET assay.; type: functional; settings: read-out: IC50_Mean
# [18] = molecular target: T6, Tyrosine-protein phosphatase non-receptor type 7 (Homo sapiens, UniProt P35236); type: functional
# T6 sequence (P35236 whole entry): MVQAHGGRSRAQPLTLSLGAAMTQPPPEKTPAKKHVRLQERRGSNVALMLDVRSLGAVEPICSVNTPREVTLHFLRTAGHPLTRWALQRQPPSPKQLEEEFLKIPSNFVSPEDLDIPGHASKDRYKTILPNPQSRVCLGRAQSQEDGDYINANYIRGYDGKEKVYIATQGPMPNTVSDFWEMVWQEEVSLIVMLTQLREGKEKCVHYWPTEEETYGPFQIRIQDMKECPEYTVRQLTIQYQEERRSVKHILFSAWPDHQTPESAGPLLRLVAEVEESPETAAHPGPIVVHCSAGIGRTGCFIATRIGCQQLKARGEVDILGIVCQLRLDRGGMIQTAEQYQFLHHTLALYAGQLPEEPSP
# [19] = molecular target: Glyceraldehyde-3-phosphate dehydrogenase (Homo sapiens, UniProt P04406)
# [20] = molecular target: Heat shock cognate 71 kDa protein (Homo sapiens, UniProt P11142); assay: In Vitro Hsc70 Dose Response Fluorescence Polarization Assay. [Related pubchem assays: 1072 ]
# [21] = molecular target: Heat shock 70 kDa protein 1A (Homo sapiens, UniProt P0DMV8); assay: inhibition of Hsp70 binding activity – biochemical, fluorescence polarization, SAR follow-up (AID 1072)
# [22] = molecular target: T7, Dual specificity protein phosphatase 6 (Rattus norvegicus, UniProt Q64346)
# T7 sequence (Q64346 whole entry): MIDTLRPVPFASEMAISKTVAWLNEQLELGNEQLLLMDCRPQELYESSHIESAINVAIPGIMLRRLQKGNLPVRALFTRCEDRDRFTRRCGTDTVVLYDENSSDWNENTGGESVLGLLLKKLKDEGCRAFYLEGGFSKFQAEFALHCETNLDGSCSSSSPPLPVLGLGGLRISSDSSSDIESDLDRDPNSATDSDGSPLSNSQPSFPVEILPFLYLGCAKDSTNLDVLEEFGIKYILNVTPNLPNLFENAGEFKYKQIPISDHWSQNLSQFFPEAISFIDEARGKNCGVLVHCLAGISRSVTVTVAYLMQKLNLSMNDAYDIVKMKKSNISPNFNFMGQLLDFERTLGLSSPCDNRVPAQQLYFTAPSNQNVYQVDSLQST
# [23] = molecular target: T7, Dual specificity protein phosphatase 6; type: functional
# [24] = molecular target: Wee1-like protein kinase (Homo sapiens, UniProt P30291); assay: HeLa cell cycle G2/M accumulation – FACS, mechanism study for Wee1 degradation inhibitor project, late-stage follow-up, panel member Wee1 Degradation (AID 2088)
# [25] = molecular target: G2/mitotic-specific cyclin-B1 (Homo sapiens, UniProt P14635); assay: HeLa cell cycle G2/M accumulation – FACS, mechanism study for Wee1 degradation inhibitor project, late-stage follow-up, panel member Cyclin B Degradation (AID 2088)
# [26] = molecular target: T8, Alkaline phosphatase, tissue-nonspecific isozyme (Homo sapiens, UniProt P05186)
# T8 sequence (P05186 whole entry): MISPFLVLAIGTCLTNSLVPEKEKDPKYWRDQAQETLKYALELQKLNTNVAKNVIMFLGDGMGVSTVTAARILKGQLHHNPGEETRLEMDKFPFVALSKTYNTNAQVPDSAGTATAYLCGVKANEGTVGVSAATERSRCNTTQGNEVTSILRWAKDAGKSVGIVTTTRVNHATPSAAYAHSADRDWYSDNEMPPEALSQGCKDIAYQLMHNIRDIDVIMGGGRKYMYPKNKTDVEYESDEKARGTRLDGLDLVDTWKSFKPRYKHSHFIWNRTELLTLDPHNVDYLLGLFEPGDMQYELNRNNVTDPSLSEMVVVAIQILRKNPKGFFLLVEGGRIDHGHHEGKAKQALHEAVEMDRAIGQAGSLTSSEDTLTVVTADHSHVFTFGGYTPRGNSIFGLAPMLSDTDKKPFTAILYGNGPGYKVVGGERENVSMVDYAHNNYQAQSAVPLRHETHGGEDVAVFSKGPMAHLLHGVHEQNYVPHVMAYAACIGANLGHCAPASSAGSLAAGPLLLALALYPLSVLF
# [27] = Trypanosoma cruzi growth suppression in host cells – NIH3T3 host cells, beta-gal luminescence, confirmation (AID 2044); type: functional, cell-based;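 note: intracellular parasites grown in NIH/3T3 mouse fibroblasts as host cells; luminescent beta-galactosidase reporter signal from transgenic T. cruzi replicating inside host cells; inhibitors lower the luminescence signal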
# [28] = NIH3T3 cell viability loss – ATP luminescence, mouse fibroblasts, counter-screen, dose response (AID 2010); type: functional, cell-based;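 note: cells exposed to compound for about 90 hours before reading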
# T3 sequence (Q92731 whole entry): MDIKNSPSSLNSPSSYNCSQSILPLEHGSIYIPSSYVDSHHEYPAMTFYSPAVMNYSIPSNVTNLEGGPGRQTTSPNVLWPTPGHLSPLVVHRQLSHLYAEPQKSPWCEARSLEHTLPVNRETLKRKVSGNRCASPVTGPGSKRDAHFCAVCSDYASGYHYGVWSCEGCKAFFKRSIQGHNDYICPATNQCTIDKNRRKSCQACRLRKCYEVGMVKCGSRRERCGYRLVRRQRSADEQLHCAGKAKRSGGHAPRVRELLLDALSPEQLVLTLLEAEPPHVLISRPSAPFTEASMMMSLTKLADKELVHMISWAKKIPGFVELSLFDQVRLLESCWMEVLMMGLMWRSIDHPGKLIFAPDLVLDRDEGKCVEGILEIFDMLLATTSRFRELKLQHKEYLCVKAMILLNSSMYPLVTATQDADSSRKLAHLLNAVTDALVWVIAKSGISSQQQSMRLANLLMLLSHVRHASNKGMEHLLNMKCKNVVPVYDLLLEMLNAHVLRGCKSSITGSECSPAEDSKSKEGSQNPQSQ
# T1 sequence (Q9NZJ5 whole entry): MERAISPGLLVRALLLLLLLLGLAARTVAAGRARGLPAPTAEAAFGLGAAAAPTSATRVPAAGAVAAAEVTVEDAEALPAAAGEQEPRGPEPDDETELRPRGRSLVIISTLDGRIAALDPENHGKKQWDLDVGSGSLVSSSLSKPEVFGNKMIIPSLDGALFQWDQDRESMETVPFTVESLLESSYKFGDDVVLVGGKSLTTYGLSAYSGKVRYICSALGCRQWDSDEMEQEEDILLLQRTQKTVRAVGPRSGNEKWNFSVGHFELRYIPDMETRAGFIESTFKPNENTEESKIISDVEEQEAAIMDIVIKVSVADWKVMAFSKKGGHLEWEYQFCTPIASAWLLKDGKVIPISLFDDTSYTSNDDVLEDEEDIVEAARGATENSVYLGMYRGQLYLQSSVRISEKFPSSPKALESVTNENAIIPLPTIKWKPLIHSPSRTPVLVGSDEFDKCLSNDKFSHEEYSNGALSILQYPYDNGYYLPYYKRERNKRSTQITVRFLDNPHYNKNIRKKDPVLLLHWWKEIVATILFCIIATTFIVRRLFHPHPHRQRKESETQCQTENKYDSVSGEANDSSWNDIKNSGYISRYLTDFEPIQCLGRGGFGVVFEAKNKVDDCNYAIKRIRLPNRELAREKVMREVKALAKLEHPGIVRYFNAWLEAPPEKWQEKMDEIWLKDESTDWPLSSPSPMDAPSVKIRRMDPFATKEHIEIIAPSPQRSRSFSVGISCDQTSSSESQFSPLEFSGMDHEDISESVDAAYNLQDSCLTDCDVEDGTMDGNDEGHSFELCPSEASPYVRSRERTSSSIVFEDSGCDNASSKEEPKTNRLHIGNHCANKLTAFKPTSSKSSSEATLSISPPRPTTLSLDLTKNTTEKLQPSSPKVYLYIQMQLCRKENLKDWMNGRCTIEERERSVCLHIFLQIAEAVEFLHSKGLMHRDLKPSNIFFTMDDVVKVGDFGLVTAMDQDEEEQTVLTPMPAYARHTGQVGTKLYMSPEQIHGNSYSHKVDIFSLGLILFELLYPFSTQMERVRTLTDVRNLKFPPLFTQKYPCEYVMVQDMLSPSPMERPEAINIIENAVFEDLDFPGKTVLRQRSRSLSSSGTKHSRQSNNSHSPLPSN
# Chain of Procathepsin L (P07711 whole entry): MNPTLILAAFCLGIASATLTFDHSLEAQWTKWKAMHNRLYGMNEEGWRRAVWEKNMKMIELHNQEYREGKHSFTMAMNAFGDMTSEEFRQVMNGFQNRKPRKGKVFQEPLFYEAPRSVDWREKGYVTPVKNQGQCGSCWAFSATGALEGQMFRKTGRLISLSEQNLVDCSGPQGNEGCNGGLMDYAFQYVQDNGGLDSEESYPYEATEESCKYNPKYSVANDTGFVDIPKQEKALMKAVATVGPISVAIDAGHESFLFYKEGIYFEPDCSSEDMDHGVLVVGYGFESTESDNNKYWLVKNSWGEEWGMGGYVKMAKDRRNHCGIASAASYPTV
# Chain of Lysosomal acid glucosylceramidase (P04062 whole entry): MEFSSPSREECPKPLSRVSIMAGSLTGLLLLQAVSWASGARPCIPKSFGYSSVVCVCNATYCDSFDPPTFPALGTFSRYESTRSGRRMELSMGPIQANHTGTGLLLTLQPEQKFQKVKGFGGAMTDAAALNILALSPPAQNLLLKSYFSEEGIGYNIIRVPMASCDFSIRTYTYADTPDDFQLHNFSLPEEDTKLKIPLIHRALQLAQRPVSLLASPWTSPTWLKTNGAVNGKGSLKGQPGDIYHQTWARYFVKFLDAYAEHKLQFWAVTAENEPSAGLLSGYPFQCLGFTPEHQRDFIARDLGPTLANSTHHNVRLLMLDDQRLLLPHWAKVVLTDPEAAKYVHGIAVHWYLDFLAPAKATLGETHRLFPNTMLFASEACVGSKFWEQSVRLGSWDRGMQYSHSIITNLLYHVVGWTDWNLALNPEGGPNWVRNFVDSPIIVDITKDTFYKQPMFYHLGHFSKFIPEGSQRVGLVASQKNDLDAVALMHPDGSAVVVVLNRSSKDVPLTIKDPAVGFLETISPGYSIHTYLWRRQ
# Chain of Heat shock cognate 71 kDa protein (P11142 whole entry): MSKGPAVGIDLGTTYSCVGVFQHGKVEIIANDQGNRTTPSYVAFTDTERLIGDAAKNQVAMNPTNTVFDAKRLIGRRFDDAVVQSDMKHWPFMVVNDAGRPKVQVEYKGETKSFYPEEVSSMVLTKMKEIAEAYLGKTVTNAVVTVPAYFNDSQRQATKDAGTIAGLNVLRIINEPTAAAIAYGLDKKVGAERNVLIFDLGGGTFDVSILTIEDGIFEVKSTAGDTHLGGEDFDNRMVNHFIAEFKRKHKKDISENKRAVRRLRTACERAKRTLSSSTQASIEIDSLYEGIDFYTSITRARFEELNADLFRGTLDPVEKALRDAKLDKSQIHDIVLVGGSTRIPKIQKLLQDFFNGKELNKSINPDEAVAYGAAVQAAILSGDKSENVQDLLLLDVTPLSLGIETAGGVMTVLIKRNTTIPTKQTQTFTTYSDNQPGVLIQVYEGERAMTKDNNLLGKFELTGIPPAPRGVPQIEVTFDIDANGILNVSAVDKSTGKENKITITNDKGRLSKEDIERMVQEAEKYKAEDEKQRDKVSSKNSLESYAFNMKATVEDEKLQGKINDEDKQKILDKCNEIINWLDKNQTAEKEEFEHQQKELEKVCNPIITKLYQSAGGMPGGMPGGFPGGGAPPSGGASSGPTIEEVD
# Chain of Wee1-like protein kinase (P30291 whole entry): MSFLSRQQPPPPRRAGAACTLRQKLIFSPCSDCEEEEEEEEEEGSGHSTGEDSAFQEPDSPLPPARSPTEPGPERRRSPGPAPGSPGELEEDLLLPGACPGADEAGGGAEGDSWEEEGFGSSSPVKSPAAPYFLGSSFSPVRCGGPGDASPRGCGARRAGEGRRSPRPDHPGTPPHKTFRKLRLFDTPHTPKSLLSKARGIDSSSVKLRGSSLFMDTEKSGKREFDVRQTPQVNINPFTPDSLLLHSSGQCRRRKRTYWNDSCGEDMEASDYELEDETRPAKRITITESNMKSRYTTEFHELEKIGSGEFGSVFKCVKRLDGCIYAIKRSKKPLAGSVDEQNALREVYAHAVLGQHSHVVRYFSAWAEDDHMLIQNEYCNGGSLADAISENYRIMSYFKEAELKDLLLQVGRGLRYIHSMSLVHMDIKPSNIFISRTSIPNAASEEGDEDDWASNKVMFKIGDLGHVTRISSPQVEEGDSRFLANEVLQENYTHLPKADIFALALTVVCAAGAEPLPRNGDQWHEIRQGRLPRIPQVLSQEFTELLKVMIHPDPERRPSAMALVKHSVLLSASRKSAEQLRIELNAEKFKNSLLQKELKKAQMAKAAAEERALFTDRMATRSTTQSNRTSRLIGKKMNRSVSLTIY
# Chain of Heat shock 70 kDa protein 1A (P0DMV8 whole entry): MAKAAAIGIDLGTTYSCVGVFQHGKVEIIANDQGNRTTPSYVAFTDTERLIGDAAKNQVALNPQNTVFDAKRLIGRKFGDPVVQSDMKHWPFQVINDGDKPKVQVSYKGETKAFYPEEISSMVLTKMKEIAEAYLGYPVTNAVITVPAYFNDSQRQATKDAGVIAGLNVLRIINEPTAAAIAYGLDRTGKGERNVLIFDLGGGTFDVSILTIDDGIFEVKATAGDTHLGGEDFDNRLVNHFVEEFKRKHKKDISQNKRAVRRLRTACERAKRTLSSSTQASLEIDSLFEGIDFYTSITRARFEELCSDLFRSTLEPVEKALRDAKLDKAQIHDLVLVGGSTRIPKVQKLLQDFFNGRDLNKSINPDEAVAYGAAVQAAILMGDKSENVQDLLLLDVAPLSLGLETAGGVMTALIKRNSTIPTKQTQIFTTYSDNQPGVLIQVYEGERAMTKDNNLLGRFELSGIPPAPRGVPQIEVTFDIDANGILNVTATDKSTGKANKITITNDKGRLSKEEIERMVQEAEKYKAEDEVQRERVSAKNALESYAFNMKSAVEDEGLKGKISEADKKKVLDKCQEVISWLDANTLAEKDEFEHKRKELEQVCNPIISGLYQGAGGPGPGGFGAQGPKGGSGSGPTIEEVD
# Chain of Glyceraldehyde-3-phosphate dehydrogenase (P04406 whole entry): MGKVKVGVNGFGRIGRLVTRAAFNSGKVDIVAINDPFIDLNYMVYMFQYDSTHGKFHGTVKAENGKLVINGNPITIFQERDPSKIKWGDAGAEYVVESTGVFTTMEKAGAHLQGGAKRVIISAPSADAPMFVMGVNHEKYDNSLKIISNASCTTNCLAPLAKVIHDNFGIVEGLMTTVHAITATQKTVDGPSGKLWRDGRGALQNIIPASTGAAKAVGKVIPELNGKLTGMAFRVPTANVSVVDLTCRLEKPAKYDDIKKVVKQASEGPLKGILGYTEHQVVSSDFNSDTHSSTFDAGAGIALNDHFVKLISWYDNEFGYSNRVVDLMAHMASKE
# Chain of Protein Rev (P05866 whole entry): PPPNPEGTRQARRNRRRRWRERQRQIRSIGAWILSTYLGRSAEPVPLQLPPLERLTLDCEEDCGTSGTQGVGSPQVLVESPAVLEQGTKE
compound,measurement,setting,value
COc1ccc(Nc2nnc(C)c(O)n2)c(OC)c1,EC50,[1],> 55.7 µM (not active)
same,EC50,[2],> 55.7 µM (not active)
O=C1NC(=O)C(=Cc2ccc(-c3ccc(F)cc3O)o2)C(=O)N1,IC50,[3],4.13 µM (active)
same,IC50,[4],> 59.6 µM (not active)
same,IC50,[5],39.9 µM (active)
same,IC50,[6],63.8 µM (inactive)
COc1ccc(CN(Cc2cc3cccc(C)c3nc2O)C(=O)N(C)C)cc1,EC50,[7],> 10 µM (not active)
Cc1ccc(S(=O)(=O)Cc2ccc(C(=O)N3CCc4ccccc4C3)o2)cc1,IC50,[8],20.5 µM (active)
same,IC50,[9],4.88 µM (active)
same,IC50,[10],< 0.023 µM (not active)
Cn1cnc(S(=O)(=O)Nc2ccc(OC(F)(F)F)cc2)c1,AC50,[11],3.13 µM (active)
same,AC50,[12],4.67 µM (active)
same,AC50,[12]; Vibrio harveyi,5.06 µM (active)
COc1ccc(C2N=C(N)N=C(N)N2c2ccc(C)cc2)cc1 (centres undefined),IC50,[13],> 79.4 µM (not active)
CCN(CC)C(=O)Cn1cc(C(=O)C(=O)N2CC=C(c3ccccc3)CC2)c2ccccc21,IC50,[14],24.4 µM (not active)
same,IC50,[15],35.1 µM (not active)
same,IC50,[16],20.4 µM (inactive)
same,IC50,[17],7.95 µM (active)
CCOC(=O)c1ccccc1OC(=O)c1ccc2c(c1)C1C=CCC1C(C(=O)O)N2 (centres undefined),IC50,[18],3.3 µM (active)
same,IC50,[19],> 100 µM (not active)
same,IC50,[20],112 µM (active)
same,IC50,[21],35.1 µM (active)
same,IC50,[22],14.1 µM (active)
same,IC50,[23],6.01 µM (active)
CCOC(=O)c1cccc(NC(=O)CCCOc2cc(=O)n(C)c3ccccc23)c1,EC50,[24],> 49.7 µM (inactive)
same,EC50,[25],> 49.7 µM (inactive)
CCOC(=O)c1c(NC(=O)N/N=C/c2ccccc2OCC)sc(C(C)=O)c1C,EC50,[26],> 100 µM (not active)
same,EC50,[27],2.88 µM (active)
same,EC50,[28],> 60 µM (not active)
